28 compounds from ChEMBL document CHEMBL1201862, “PubChem BioAssay data set” (2004) can be followed below.

Active and inactive are the calls of the source.

The target in test [1] is T1, Rac GTPase-activating protein 1 (Homo sapiens, UniProt Q9H0H5).
T1 sequence (Q9H0H5 whole entry): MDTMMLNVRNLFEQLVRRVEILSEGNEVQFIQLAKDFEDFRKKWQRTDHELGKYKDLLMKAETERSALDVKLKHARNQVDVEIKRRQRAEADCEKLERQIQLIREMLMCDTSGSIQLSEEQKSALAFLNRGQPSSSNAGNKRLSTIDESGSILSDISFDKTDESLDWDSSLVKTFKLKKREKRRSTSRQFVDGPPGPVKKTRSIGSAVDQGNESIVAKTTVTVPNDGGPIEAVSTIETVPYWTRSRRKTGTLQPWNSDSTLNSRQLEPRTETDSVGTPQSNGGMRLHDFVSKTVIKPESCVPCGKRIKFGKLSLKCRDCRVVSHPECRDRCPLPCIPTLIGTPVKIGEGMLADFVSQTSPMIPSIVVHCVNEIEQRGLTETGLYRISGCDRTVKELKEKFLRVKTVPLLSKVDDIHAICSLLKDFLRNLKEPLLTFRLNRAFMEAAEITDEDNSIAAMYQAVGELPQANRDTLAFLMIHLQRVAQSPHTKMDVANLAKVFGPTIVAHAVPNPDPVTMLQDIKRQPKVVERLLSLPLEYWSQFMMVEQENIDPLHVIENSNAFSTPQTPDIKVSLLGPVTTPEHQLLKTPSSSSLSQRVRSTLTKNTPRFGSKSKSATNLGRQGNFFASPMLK
The test can be described thus: blockers of MgcRacGAP-driven Rac1 GTP hydrolysis – biochemical, ADP Hunter fluorescence, primary and confirmatory, confirmation (AID 624330). The format is functional.

Test [2] deals with T2, Replicative DNA helicase DnaB (Mycobacterium tuberculosis, UniProt P9WMR3).
T2 sequence (P9WMR3 whole entry): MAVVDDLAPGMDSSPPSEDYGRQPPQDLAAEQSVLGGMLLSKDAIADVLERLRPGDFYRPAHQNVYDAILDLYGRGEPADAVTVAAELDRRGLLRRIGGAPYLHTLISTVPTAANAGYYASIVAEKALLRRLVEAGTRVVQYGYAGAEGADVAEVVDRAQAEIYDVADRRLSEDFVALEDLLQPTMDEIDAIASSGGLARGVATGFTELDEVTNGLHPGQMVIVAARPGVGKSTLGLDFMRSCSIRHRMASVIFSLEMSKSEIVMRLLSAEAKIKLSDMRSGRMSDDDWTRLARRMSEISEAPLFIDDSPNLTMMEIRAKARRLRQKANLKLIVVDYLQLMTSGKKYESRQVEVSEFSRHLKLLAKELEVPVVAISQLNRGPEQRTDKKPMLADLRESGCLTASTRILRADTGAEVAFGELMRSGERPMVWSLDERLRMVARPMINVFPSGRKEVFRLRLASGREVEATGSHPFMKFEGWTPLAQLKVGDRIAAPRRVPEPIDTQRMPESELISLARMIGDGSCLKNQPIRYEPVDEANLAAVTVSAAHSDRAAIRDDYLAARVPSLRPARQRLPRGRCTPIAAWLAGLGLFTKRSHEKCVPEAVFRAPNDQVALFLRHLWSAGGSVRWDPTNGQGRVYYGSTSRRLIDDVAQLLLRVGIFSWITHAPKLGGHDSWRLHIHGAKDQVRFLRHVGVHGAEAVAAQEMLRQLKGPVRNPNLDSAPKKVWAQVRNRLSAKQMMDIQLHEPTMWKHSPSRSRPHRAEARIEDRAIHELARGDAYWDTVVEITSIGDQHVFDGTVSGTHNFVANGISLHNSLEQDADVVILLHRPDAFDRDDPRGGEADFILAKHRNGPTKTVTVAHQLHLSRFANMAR
The test can be described thus: DnaB intein splicing inhibitors, dose response, biochemical, cell-free fluorescence (AID 449749). The test is classed as functional.

The next test concerns the target T3, Protein RecA (Mycobacterium tuberculosis, UniProt P9WHJ3).
T3 sequence (P9WHJ3 whole entry): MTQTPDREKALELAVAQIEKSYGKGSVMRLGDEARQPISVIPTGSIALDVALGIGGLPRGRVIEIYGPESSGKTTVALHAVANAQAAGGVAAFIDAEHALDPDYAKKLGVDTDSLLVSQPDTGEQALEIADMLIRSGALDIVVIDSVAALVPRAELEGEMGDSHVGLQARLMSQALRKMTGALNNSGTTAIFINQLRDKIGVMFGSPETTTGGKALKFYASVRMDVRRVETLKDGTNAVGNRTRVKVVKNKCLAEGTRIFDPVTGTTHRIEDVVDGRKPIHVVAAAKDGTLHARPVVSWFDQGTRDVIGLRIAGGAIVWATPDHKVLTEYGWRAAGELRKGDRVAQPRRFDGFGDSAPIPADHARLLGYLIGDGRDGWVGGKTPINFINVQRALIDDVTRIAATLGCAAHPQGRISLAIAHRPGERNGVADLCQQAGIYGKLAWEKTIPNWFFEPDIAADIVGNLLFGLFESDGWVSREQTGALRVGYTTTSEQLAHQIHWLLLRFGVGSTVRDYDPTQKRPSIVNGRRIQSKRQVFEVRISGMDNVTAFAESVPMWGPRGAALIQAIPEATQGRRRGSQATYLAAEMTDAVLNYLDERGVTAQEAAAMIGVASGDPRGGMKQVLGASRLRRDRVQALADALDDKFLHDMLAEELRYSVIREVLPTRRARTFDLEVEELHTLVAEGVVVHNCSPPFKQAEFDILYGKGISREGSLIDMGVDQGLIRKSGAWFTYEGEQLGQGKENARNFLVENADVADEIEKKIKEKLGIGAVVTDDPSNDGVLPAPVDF
The test can be described thus: Fluorescence Cell-Free Homogeneous Dose Retest to Identify Inhibitors of RecA-Intein Splicing Activity. [Related pubchem assays (depositor defined):AID2097, AID2223, AID489010, AID492950]. The format is functional.

For test [3], the target named is T4, Corticotropin-releasing factor receptor 2/Corticotropin-releasing factor-binding protein (Homo sapiens, UniProt P24387+Q13324).
T4 sequence (Q13324 whole entry): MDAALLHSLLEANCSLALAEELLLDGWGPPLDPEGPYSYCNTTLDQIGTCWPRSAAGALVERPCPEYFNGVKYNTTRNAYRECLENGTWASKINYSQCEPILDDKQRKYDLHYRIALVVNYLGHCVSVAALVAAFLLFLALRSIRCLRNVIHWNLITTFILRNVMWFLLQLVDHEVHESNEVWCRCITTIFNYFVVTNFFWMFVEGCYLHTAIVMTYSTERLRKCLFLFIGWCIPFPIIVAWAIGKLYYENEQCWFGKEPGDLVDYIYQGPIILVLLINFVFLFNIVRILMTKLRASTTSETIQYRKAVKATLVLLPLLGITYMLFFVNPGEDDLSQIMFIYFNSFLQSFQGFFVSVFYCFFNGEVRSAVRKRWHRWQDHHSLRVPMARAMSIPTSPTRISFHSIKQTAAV
T4 sequence (P24387 whole entry): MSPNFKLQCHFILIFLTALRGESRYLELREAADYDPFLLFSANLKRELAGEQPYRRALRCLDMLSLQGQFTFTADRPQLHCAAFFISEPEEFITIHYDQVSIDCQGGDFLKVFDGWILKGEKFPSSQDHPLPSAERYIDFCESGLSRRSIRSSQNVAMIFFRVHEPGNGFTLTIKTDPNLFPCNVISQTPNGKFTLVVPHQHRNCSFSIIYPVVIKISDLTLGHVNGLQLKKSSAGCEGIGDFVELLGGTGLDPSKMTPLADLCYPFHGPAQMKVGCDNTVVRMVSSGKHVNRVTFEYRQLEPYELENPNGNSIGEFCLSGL
The test can be described thus: activators of CRF receptor 2 with binding protein – uHTS hits, confirmation (AID 602473). The test is classed as functional. As to conditions: read-out: EC50_Mean.

Test [4] concerns the target T4, Corticotropin-releasing factor receptor 2/Corticotropin-releasing factor-binding protein. The test can be described thus: Dose Response confirmation of uHTS hits for small molecule antagonists of the CRF-binding protein and CRF-R2 receptor complex. The format is functional. The following applies: read-out: IC50_Mean.
Test [5] is described as follows: Trypanosoma cruzi growth suppression in host cells – NIH3T3 host cells, beta-gal luminescence, confirmation (AID 2044).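 Further: intracellular parasites grown in NIH/3T3 mouse fibroblasts as host cells; luminescent beta-galactosidase reporter signal from transgenic T. cruzi replicating inside host cells; inhibitors lower the luminescence signal.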 The test is classed as functional, cell-based.
A short description of test [6]: NIH3T3 cell viability loss – ATP luminescence, mouse fibroblasts, counter-screen, dose response (AID 2010).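 Further: cells exposed to compound for about 90 hours before reading.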 The format is functional, cell-based.
The next test deals with Cytochrome P450 3A4 (Homo sapiens, UniProt P08684).
Chain of Cytochrome P450 3A4 (P08684 whole entry): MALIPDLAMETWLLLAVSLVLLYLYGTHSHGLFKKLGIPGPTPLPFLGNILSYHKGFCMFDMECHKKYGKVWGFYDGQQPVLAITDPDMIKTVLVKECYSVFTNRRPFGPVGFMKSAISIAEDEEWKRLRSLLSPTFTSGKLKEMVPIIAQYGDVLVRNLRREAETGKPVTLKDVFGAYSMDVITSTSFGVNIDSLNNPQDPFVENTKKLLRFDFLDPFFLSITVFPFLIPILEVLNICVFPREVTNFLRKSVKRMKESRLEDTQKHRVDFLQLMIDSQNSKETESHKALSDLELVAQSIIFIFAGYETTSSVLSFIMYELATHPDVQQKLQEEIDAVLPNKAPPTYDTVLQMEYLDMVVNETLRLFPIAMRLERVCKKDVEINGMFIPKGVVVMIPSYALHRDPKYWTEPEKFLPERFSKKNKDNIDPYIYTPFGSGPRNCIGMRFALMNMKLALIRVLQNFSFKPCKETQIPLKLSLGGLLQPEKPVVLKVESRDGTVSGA

For the compound `Nc1ccc2c(c1)Cc1cc(N)c(Br)cc1-2`, the IC50 in test [1] is 7.57 µM (active).

Take `CC(C)(C)c1[nH]nc2c1C(c1ccco1)C(C#N)=C(N)O2` (stereo not drawn): the AC50 in test [2] is 3.88 µM (active). In addition, the EC50 at Protein RecA was 1.21 µM (active).

As to `O=C(COc1ccccc1)N1CCN(CC2CC3C=CC2C3)CC1` (stereo not drawn), the IC50 in test [1] is 175 µM (active).

For `COc1ccccc1N1CCN(C(=O)/C=C/c2cccs2)CC1`, the EC50 in test [3] was > 53 µM (inactive). Moreover, in test [4], the IC50 was > 47.1 µM (inactive).

Consider `O=C(Oc1ccc2c(c1)OCO2)c1ccc(Br)c(S(=O)(=O)N2CCOCC2)c1`, for which the IC50 in test [1] was 76.1 µM (active).

Regarding `COC(=O)c1[nH]c2ccccc2c1NC(=O)Oc1ccccc1`, the IC50 in test [1] is 15.9 µM (active).

`O=[N+]([O-])c1cccc(CN2CCN(Cc3ccco3)CC2)c1`: the IC50 in test [1] was 98.5 µM (active).

For `CC1(C)CC(=O)C=C(Nc2ccc(O)cc2)C1`, the IC50 in test [1] is 20.2 µM (active).

As for `COc1ccccc1Nc1nnc(S)s1`, in test [1], the IC50 is 57.1 µM (active).

Take `C[C@H](NC(=O)[C@@H]1Cc2ccccc2CN1)C(=O)NC1CCCCC1`: the EC50 in test [3] is > 53 µM (inactive). Further, in test [4], the IC50 was > 47.1 µM (inactive).

`CN1CCc2nc(SC(C(=O)O)c3ccccc3)c(C#N)c(-c3cccs3)c2C1` (stereo not drawn): the EC50 was 1.2 µM (active) in test [5], > 30 µM (not active) in test [6] and 12.3 µM (active) on Protein RecA. The AC50 in test [2] was > 380 µM (inactive).

With `N#Cc1nc(N)nc(N(c2ccccc2)c2ccccc2)n1`, in test [2], the AC50 is 39.8 µM (active). Also, the EC50 on Protein RecA is 66.6 µM (active).

Turning to `CC(C)(C)N=C(S)Nc1ccc(Nc2ccccc2)cc1`, the AC50 on Cytochrome P450 3A4 is 11.2 µM (inconclusive). In test [1], the IC50 was 103 µM (active).

Regarding `Cc1ccc(C)c(NC(S)=NCCCN2CCOCC2)c1`, the EC50 in test [3] is > 53 µM (inactive). In test [4], the IC50 is > 47.1 µM (inactive).

For `CCn1c(C)nc2cc(C(=O)NN=Cc3ccc([N+](=O)[O-])cc3)ccc21`, the EC50 in test [3] is > 53 µM (inactive). Besides, the IC50 in test [4] was > 47.1 µM (inactive).

With `C/C(=N\NC(=O)c1ccc(NS(=O)(=O)c2cccs2)cc1)c1ccccc1`, in test [3], the EC50 was > 53 µM (inactive). Also, in test [4], the IC50 is > 47.1 µM (inactive).

Consider `CNc1nc(NC)nc(NNC(=O)c2ccccc2)n1`, for which, in test [3], the EC50 was > 53 µM (inactive). Also, in test [4], the IC50 was > 47.1 µM (inactive).

Regarding `Cc1ccccc1NS(=O)(=O)c1ccc(C(=O)N(C)CC(=O)Nc2ccccc2Br)cc1`, the EC50 in test [3] was > 53 µM (inactive). Further, in test [4], the IC50 was > 47.1 µM (inactive).

With `CC1(C)CC(CCNC(=O)CCl)(c2ccccc2)CCO1` (stereo not drawn), in test [2], the AC50 was 179 µM (active). In addition, the EC50 at Protein RecA was 14.5 µM (active).

For the compound `Cc1ccc(C)c(C(C)NC(=O)c2ccccc2Br)c1` (stereo not drawn), the EC50 in test [3] was > 53 µM (inactive). Further, the IC50 in test [4] is > 47.1 µM (inactive).

Take `Oc1c2c(nn1-c1ccccc1)CCSC2`: in test [2], the AC50 is 12 µM (active). For the same compound, the EC50 at Protein RecA was 13.7 µM (active).

As for `COc1cc(/C=C/CN2CCN(CCC(C)C)C(CCO)C2)ccc1O` (stereo not drawn), the IC50 in test [1] was 101 µM (active).

Consider `O=C(c1ccc2snnc2c1)N1CCN(c2ccccn2)CC1`, for which the EC50 in test [3] is > 53 µM (inactive). In addition, the IC50 in test [4] was > 47.1 µM (inactive).

Turning to `Cc1n[nH]c2c1C(c1ccsc1)C(C#N)=C(N)O2` (stereo not drawn), the AC50 in test [2] was 11 µM (active). Also, the EC50 on Protein RecA is 4.1 µM (active).

Turning to `CC1Nc2ncnc(N3CCc4ccccc4C3)c2N(Cc2ccc(Cl)cc2)C1=O` (stereo not drawn), the AC50 in test [2] is > 380 µM (inactive). Moreover, on Protein RecA, the EC50 is 30.9 µM (active).

Turning to `CC(C)NCC(=O)Nc1c2c(nc3ccccc13)CCC2`, the IC50 in test [1] was 53.2 µM (active).

For `O=C(CNC(=O)c1cccnc1)N/N=C/c1ccc(O)cc1O`, in test [1], the IC50 is 97.4 µM (active).

With `COc1cccc(-c2cc(O)[nH]n2)c1`, the AC50 in test [2] is 2.51 µM (active). For the same compound, the EC50 on Protein RecA is 0.757 µM (active).
